Tests used:
[1] = test system: human hepatoblastoma cells HepG2; test: Cytotoxicity MTT assay, HepG2 cells; details: 50 μM, 24 h
Experimental: Human hepatoblastoma cells HepG2 and human normal liver cells LO2 cells were cultured at 37 °C in DMEM containing 10% foetal bovine serum, 100 U/mL penicillin, and […] streptomycin in a humidified incubator with 5% CO2. The methyl thiazolyl tetrazolium (MTT) assay was used to assess cell cytotoxicity. In a 96-well plate, HepG2 cells and LO2 cells were injected at 1 × 10^4 cells per well. The cells were treated with various substances that were diluted in DMEM for 24 h after being cultivated for 24 h. The cells were then treated for 4 h with 20 µL 0.5 mg/mL MTT reagent. The cell culture was withdrawn after 4 h, and 150 µL DMSO were added to dissolve the formazan. […] Three independent tests were used to calculate cell viability.
Blank: cultured with fresh medium only.

BuChE from horse serum = target: T1, BuChE from horse serum (Equus caballus, UniProt P81908); test: biochemical; type: biochemical
T1 construct: BuChE from horse serum (C4290-1KU; Sigma); purchased Sigma C4290-1KU; host or cells: horse serum
T1 sequence (P81908 whole entry): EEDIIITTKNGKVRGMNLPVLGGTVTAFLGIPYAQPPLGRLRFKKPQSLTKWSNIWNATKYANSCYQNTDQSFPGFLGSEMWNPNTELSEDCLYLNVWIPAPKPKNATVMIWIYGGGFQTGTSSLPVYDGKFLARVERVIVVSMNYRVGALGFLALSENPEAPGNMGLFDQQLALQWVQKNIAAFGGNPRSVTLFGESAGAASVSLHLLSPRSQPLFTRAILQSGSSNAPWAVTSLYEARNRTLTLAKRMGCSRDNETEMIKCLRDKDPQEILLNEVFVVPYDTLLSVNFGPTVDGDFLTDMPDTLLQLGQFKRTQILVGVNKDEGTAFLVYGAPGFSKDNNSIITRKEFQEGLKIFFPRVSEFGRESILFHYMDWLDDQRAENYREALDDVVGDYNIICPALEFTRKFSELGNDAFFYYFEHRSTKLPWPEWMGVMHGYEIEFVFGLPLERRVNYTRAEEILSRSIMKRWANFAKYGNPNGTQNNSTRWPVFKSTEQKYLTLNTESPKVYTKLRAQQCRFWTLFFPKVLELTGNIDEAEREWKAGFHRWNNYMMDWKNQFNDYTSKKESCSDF
Experimental: According to Ellman's method, assays were carried out on AChE from electric eel (C3389-500UN; Sigma) and BuChE from horse serum (C4290-1KU; Sigma). On a final volume of 500 μL, the experiment was carried out in 48-well plates. EeAChE or eqBuChE, 0.036 U/mL, and 0.1 M pH 8 phosphate buffer were added to each well. At 37 °C, they were pre-incubated for 20 min at various chemical concentrations. […] Along with the enzymatic breakdown of ACh or BuCh, the DTNB creates the yellow anion 5-thio-2-nitrobenzoic acid. In a Biotek Synergy HTX Multi-Mode reader, changes in absorbance were detected at 410 nm. Inhibition curves were used to calculate the IC50 values (log inhibitor concentration vs percent of inhibition). The same conditions were used in a control experiment without the inhibitor, and the blank comprised buffer, DMSO, DTNB, and substrate.
The IC50 values were calculated by SPSS 17.0.

male ICR mice = test: In vivo hepatotoxicity evaluation; set-up: species or system mouse
Experimental: . Mice were fasted for 24 h. Intragastrically, the combination was given at a dose of 30 mg/kg body weight with the same quantity of vehicle (po). […] A biochemical analyser was used to process the data (Hitachi 7020, Japan). Mice were slaughtered and livers were obtained for immunohistochemical morphological evaluation after the last sample of postglobular blood. We isolated two 3-mm sections of each liver from the hilum to the edge of the left lateral lobe using an ultra-thin semi-automatic microtome (LeicaRM2245, Germany), immediately placed them in 10% buffered formaldehyde, fixed them for 2 days, and embedded them in paraffin blocks using a paraffin-embedding station (LeicaEG1150H, Germany). Subsequently, five […] sections were prepared from these paraffin sections, deparaffinized, stained with haematoxylin and eosin (HE) or using the periodic acid-Schiff glycogen staining method.

Aβ1–42 = test: Brain Aβ1–42 total amount by mouse ELISA kit; type: in vivo; details: mice, Aβ1–42 icv model, K3 10 mg/kg po, donepezil 15 mg/kg po
Experimental: In the Aβ1–42 oligomeric damage experiment, all mice were sacrificed after the behavioural research was completed, and the brains were collected to assess the total content of Aβ1–42 using a mouse ELISA kit. Each brain tissue sample was thoroughly homogenised in a grinder with 10 times PBS (pH = 7.4 ± 0.1) before being centrifuged for 5 min at 5000×g. The supernatant was separated for use. The detection technique followed the directions exactly, and the standard curve was created. Brain tissue Aβ1–42 content was calculated according to the linear regression equation. All values were expressed as mean ± SEM using GraphPadPrism8.0 software.

in vitro = test: in vitro
Source text: Based on prior work[40]^,[41], a parallel artificial membrane permeation assay (PAMPA) for the blood-brain barrier (BBB) was used to determine the ability of the test chemical to penetrate into the brain. Six commercial medicines were purchased from Aladdin Reagents to validate the methodology. Energy Chemical provided the DMSO and dodecane. Avanti Polar Lipids provided the porcine brain lipid (PBL). Millipore provided the donor 96-well filter microplate with a PVDF membrane (pore size […]) and the acceptor indented 96-well microplate. Corning Inc. provided the 96-well UV plate (COSTAR). DMSO was used to dissolve commercial medications and test compounds at a concentration of 20 mg/mL. They were then diluted 200 times in a solution of PBS (pH 7.4 ± 0.1)/EtOH (70/30, v/v) to achieve a final concentration of 100 µg/mL. The donor microplate's fifilter membrane was coated with 4 µL of PBL in dodecane (20 mg/mL). The donor wells were then filled with 200 µL of diluted chemical solution and 300 µL of PBS/EtOH (70/30, v/v). To make the membrane contact with buffer solution, the donor fifilter plate was carefully positioned on top of the acceptor plate to form a “sandwich” assembly. At 25 °C, the sandwich was left undisturbed. The donor plate was carefully removed after 18 h of incubation, and the concentrations of test chemicals in the donor and acceptor wells were quantified using a UV plate spectroscopic reader (PerkinElmer VICTOR Nivo, Finland). Each sample was analysed at three wavelengths, in at least three independent experiments, in four wells.
Pe, permeability, refers to the ability of compounds to permeate the membranes through passive diffusion in the blood-brain barrier penetration assays.

PC12 cells = test: Neuroprotection assay against H2O2-induced PC12 cell injury; type: cell-based; details: Rattus norvegicus
Experimental: PC12 cells were distributed at a density of 1 × 10^4 cells per well into 96-well microtiter plates. At time zero, cells were treated with a range of compounds K3 concentrations (1‒25 µM) and kept for 3 h after being incubated overnight. The media were then changed with new media containing the medication as well as a cytotoxic stimulus in the form of 100 µM H2O2, which was left for another 24 h. The MTT assay was used to determine cell viability after 24 h. In the cells, 20 µL of 0.5 mg/mL MTT reagent was applied and incubated for 4 h. The cell culture was removed after 4 h, and 150 µL DMSO was added to dissolve the formazan. The optical density was measured at 492 nm (OD492) on the Biotek Synergy HTX Multi-Mode reader. Results were adjusted considering OD measured in the blank.

## O=S(=O)(F)Oc1cc(-c2ccccc2)nn1-c1ccc(Cl)cc1 [Compound K3]
[1]
  cell survival rate: 87.9%
BuChE from horse serum
  IC50: 790 ± 320 nM
Male ICR mice; 30 mg/kg po, 8, 22 and 36 h after single dosing
  serum ALT and AST levels vs vehicle group: No significant difference
Male ICR mice; 30 mg/kg, 36 h after administration
  liver histomorphology: no core necrosis or evident steatosis
Aβ1–42
  decrease of Aβ1–42 peptides in brain: 17.6%
In vitro; PAMPA, pH 7.4
  Papp: 7.2 ×10⁻⁶ cm/s
In vitro; PAMPA-BBB, 18 h, 25 °C, three independent experiments
  Pe Exp. value: above 4 ×10^-6cm/s
PC12 cells; PC-12, 100 µM H2O2, compound 5 µM
  viability at 5 µM: 55.9%
PC12 cells; PC-12, 100 µM H2O2, compound 25 µM
  viability at 25 µM: 69.3%

Reference: PMC9448382, “Fluorosulfate-containing pyrazole heterocycles as selective BuChE inhibitors: structure-activity relationship and biological evaluation for the treatment of Alzheimer’s disease” (Journal of Enzyme Inhibition and Medicinal Chemistry, 2022)
